The assay addresses Regulator of G-protein signaling 7 (Homo sapiens) (UniProt P49802). Briefly: RGS7-Galphao binding modulators, dose response, biochemical, multiplexed bead flow cytometry (AID 1871). To be noted: bead-based flow cytometry; for pKi: measured here: Ki for RGS7-Galphao. (In general: In flow cytometry, cells or beads pass a laser one at a time.)

pEC50, pKi: −log10 of the molar value. The source made the active and inactive calls. No rule for the calls is given here.

Sequence of Regulator of G-protein signaling 7 (Homo sapiens) (P49802 whole entry, looked up): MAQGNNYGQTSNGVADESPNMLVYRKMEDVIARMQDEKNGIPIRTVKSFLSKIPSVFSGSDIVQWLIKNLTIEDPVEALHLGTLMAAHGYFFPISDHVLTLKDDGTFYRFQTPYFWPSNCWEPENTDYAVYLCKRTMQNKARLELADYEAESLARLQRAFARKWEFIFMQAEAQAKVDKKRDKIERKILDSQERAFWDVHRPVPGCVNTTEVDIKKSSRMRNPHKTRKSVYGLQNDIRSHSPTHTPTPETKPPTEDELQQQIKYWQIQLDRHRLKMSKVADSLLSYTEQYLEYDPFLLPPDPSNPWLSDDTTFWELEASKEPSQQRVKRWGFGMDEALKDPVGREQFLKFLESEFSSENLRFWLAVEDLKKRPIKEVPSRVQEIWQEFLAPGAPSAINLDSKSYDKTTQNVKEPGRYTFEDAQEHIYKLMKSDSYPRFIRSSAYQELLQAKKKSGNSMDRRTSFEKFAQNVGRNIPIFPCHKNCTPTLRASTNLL

Usually pKi stands for −log10 of the Ki, conventionally taken in molar units. Higher therefore signals a low Ki. In turn, `COc1ccc(OC)c(CCNC(=O)Cn2sc3nc(C)cc(C)c3c2=O)c1` had a negative-log Ki (pKi) of 5.46. With `O=C(Cc1csc(N2CCOCC2)n1)N/N=C/c1ccc(O)c(O)c1O`, the pKi was 5.12. Broadly, the EC50 is the concentration giving half of the maximal effect. For `CC(C)Sc1nc2ccc(N3C(=O)C4CCCCC4C3=O)cc2s1` (stereo not drawn), the EC50 is > 30 µM (inactive). Consider `C/C(=N/NC(=O)c1cc(O)c(O)c(O)c1)c1ccc([N+](=O)[O-])cc1`, for which the pKi is 4.74.

Take `CCOC(=O)C1=C(C)NC(C)=C(C(=O)OCCNC(=O)c2cccnc2)C1c1cccc([N+](=O)[O-])c1` (stereo not drawn): the EC50 is > 30 µM (inactive). Compound `CCN=c1scc(C)n1/N=C/c1ccc(O)c(O)c1O` gave a pKi of 4.93. In turn, `CCC(=O)NC1=C(Cl)C(=O)C(NC(=O)CC)=C(Cl)C1=O` showed a negative-log Ki (pKi) of 5.48. With `CCOC(=O)N=Nc1c(O)n(C)c2ccccc12`, the EC50 was > 30 µM (inactive). `CCN(CC)S(=O)(=O)c1cccc(C(=O)N/N=C/c2ccc(O)c(O)c2O)c1` had a negative-log Ki (pKi) of 5.48.

Take `O=C(OCC1O[C@@H](OC(=O)c2cc(O)c(O)c(O)c2)[C@@H](OC(=O)c2cc(O)c(O)c(O)c2)[C@@H](OC(=O)c2cc(O)c(O)c(O)c2)[C@@H]1OC(=O)c1cc(O)c(O)c(O)c1)c1cc(O)c(O)c(O)c1` (stereo partly drawn): the pKi is 6.43. The same measure, in the same setting: with `COCCCNC(=O)c1ccc2c3c(onc13)-c1ccccc1C2=O` the figure was 5.83. What is called pEC50 is the negative decadic logarithm of the EC50, by convention in mol/L. `NS(=O)(=O)c1ccc(N/N=C/c2ccc(O)c(O)c2O)c([N+](=O)[O-])c1`: the pEC50 is 5.71 and the pKi is 5.78.

The compound `CN(C)c1ncc(C2=C(Cl)C(=O)C(N3CCCC3)=C(Cl)C2=O)s1` gave a pKi of 5.94. Regarding `O=C1C(Cl)=C(N2CCCCC2)C(=O)C(Cl)=C1c1cnc(N2CCCCC2)s1`, the pKi is 6.15. `CCOc1ccccc1-c1c2cc(O)c(=O)cc-2oc2cc(O)c(O)cc12` showed a negative-log Ki (pKi) of 5.21. `O=C1OCC2OC(O)C(O)C(O)C2OC(=O)c2cc(O)c(O)c(O)c2-c2c(O)c(O)c3oc(=O)c4c(c(O)c(O)c5oc(=O)c2c3c54)-c2c1cc(O)c(O)c2O` (stereo not drawn) had a pKi of 5.76.

`O=C1CCC(=O)N(O)CCCCCNC(=O)CCC(=O)N(O)CCCCCNC(=O)CCC(=O)N(O)CCCCCN1` showed a negative logarithm of the Ki (pKi) of 5.70. On to `CC(=O)N(O)CCCCCNC(=O)CCC(=O)N(O)CCCCCNC(=O)CCC(=O)N(O)CCCCCN`, for which the negative-log Ki (pKi) was 5.98. Take `COc1ccc(Br)cc1/C=N/Nc1cccc(C(=O)O)c1`: the EC50 was > 30 µM (inactive). `Nc1c(C(=O)NCC2CCCO2)sc2nc3c(c(-c4ccco4)c12)CC/C3=C\c1ccco1` (stereo not drawn) showed a negative logarithm of the Ki (pKi) of 5.51. As for `CCOC(=O)/C(C(=O)Nc1ccccc1Cl)=C1/NC(C)(C)Cc2ccccc21`, the EC50 is > 30 µM (inactive).

As for `O=[N+]([O-])c1ccc(Sc2cccc[n+]2[O-])c2nonc12`, the pKi was 5.39. Turning to `CC1(C)OC(=O)C(=Cc2ccc(-c3ccc(S(N)(=O)=O)cc3)o2)C(=O)O1`, the pKi was 5.31. `CCNc1ccc2noc3c2c1C(=O)c1ccccc1-3` gave a negative logarithm of the Ki (pKi) of 4.65. In turn, `CN=c1scc(C)n1/N=C/c1ccc(O)c(O)c1O` showed a negative-log Ki (pKi) of 5.06. `CCCNC(=O)Cn1sc2nc(C)cc(C)c2c1=O` had a pKi of 5.39. For `COc1ccc(C2=CC(=O)C=CC2=O)cc1`, the pKi was 5.09. In turn, `O=c1c2ccccc2sn1-c1ccc(S(=O)(=O)N2CCCC2)cc1` gave a pKi of 6.28. As for `CCC(=O)NC(c1ccc(C)cc1)c1cc([N+](=O)[O-])c2cccnc2c1O` (stereo not drawn), the negative logarithm of the Ki (pKi) is 4.94. For `O=c1[nH]c(=S)n(Cc2ccco2)c(O)c1C=NCc1cccs1`, the EC50 was > 30 µM (inactive). Turning to `O=C(O)C[C@@H]1C(=O)O[C@@H]2C(COC(=O)c3cc(O)c(O)c(O)c3)O[C@@H](OC(=O)c3cc(O)c(O)c(O)c3)[C@@H](OC(=O)c3cc(O)c(O)c4c3[C@H]1[C@H](O)C(=O)O4)[C@H]2OC(=O)c1cc(O)c(O)c(O)c1` (stereo partly drawn), the negative logarithm of the Ki (pKi) is 6.29. For the compound `O=C1CCCC2=C1C(c1cccs1)n1ncnc1N2` (stereo not drawn), the EC50 is > 30 µM (inactive). As for `CN(C)[C@@H]1C(=O)C(C(=O)NCN2CCCC2)=C(O)[C@@]2(O)C(=O)C3=C(O)c4c(O)cccc4[C@@](C)(O)C3CC12` (stereo partly drawn), the pEC50 was 5.36 and the negative-log Ki (pKi) is 5.43. `CN1CCN(C2=C(Cl)C(=O)C(c3cnc(N4CCCCC4)s3)=C(Cl)C2=O)CC1` showed a pKi of 6.82.

Take `O=C(O[C@@H]1OC2COC(=O)c3cc(O)c(O)c(O)c3-c3c(cc(O)c(O)c3O)C(=O)O[C@@H]([C@H]1O)[C@@H]2O)c1cc(O)c(O)c(O)c1`: the pKi is 6.01. `O=C(COc1ccccc1C(=O)N/N=C\c1ccc(O)c(O)c1)N/N=C/c1ccc(O)c(O)c1` showed a negative-log Ki (pKi) of 5.71.

The values above are taken from PubChem BioAssay AID1871 (NMMLSC, 2009).
